Measurements as given in patent US20190298666A1, “PROMOTION OF T LYMPHOCYTE PROLIFERATION” (Regents of the University of Minnesota, priority 2018, published 2019).
pIC50: −log10 of the molar value.

Tests used:
[1] = test system: breast cancer cell lines and established mouse mammary tumors; settings: cited from earlier work
[2] = test system: CD4+ and CD8+ T lymphocytes; assay: T cell growth/proliferation, mouse splenocytes with anti-CD3 and anti-CD28 antibodies, flow cytometry; assay type: cell-based, C57BL/6J mouse
Method: (§1) FIGS. 1A-B. Freshly harvested C57BL/6 splenocytes were seeded at 80,000 cells/well in a 96-well plate coated with anti-mouse CD3 (10 ug/ml) and anti-mouse CD28 (1 ug/ml) antibodies. After 24 hour incubation with HBB (0-50 uM), cells were then labeled with anti-mouse CD4-eFlour450, anti-mouse CD8 FITC and anti-mouse Thy1.2 APC-eFluor780 antibodies and analyzed by a flowcytometer. Thy1.2 positive single lymphocytes were gated as T cells and CD4 positive and CD8 positive cells were counted. FIG. 1A. Results are expressed as mean±S.D. (n=6). FIG. 1B. MCF-7 breast cancer cells were incubated in the same concentration range of HBB, also for 24 hours. MTT assay of cell numbers.
(§2) FIG. 4. Freshly harvested C57BL/6 splenocytes were seeded at 80,000 cells/well in a 96-well plate coated with anti-mouse CD3 (10 ug/ml) and anti-mouse CD28 (1 ug/ml) antibodies. After 24 hour incubation with metformin (0-10 mM), cells were then labeled with anti-mouse CD4-eFlour450, anti-mouse CD8 FITC and anti-mouse Thy1.2 APC-eFluor780 antibodies and analyzed by a flowcytometer. Thy1.2 positive single lymphocytes were gated as T cells and CD4 positive and CD8 positive cells were counted.
(§3) HBB effects on T cell growth were tested across a range of concentrations (0 to 50 uM). C57BL/6J mouse splenocytes were incubated with or without biguanides in the presence of anti-mouse CD3 and anti-mouse CD28 antibodies. After 24 hours, cells were labeled with fluorescently tagged antibodies to mouse Thy-1, CD4, CD8, CD25, CD44, CD62L and CD73 surface antigens and T cell subsets were analyzed by flow cytometry.

[3] = rodents; cited from earlier work
CD4+ T lymphocytes = assay: T cell proliferation, mouse splenocytes with anti-CD3 and anti-CD28 antibodies, flow cytometry; assay type: cell-based, C57BL/6J mouse
Method: as §1, §2, §3

CD8+ T lymphocytes = assay: as above; assay type: cell-based, C57BL/6J mouse
Method: as §1, §2, §3

[4] = test system: Naive, non-Treg CD4 T cells; assay: iTreg differentiation; assay type: cell-based; settings: IL2 and TGFb, 3 days
Method: Naive, non-Treg CD4 T cells were first isolated (these are isolated by magnetic depletion on CD8, CD11b, CD11c, CD19, CD24, CD25, CD44, CD49b, CD105, MHC-II, Gr1, Ter119, B220, TCRg/d). These cells were stimulated with plate bound anti-CD3/CD28 (plates were coated with 5 ug/mL for 2 hours at 37° C.) and given 100 U/mL IL2, 5 ng/mL TGFb and an additional 1 ug/mL anti-Cd28 in cRPMI. After 3 days the cells were stained for CD4, CD8 and CD25 with FOXP3 being on the GFP reporter. Tregs are defined here as CD25+FOXP3+. For this assay, 300,000 cells were plated per well in a 24 well plate.

[5] = test system: MCF-7 breast cancer cells; assay: MTT assay of cell numbers, MCF-7; assay type: cell-based; settings: 0-50 uM, 24 hours, concentrations that induce CD4 and CD8 T cell growth
Method: as §1

[6] = test system: CD4+CD25+FOXP3- progenitor cells; assay: TRP conversion assay (IL2-dependent conversion into Tregs); assay type: cell-based; settings: 1 U/mL IL2, 3 days
Description: (§4) Each TRP (CD4+CD25+FOXP3- or CD4+CD25−FOXP3+) population was isolated by FACS and stimulated with 1 U/mL IL2 (in complete RPMI) for 3 days then analyzed for upregulation of CD25 and FOXP3 (by GFP reporter).

[7] = test system: CD4+CD25−FOXP3+ progenitor cells; assay: as above; assay type: cell-based; settings: 1 U/mL IL2, 3 days
Description: as §4

CYP3A4 [8] = target: T1, CYP3A4 (Homo sapiens, UniProt P08684); settings: compared with metformin; cited from earlier work
T1 sequence (P08684 whole entry): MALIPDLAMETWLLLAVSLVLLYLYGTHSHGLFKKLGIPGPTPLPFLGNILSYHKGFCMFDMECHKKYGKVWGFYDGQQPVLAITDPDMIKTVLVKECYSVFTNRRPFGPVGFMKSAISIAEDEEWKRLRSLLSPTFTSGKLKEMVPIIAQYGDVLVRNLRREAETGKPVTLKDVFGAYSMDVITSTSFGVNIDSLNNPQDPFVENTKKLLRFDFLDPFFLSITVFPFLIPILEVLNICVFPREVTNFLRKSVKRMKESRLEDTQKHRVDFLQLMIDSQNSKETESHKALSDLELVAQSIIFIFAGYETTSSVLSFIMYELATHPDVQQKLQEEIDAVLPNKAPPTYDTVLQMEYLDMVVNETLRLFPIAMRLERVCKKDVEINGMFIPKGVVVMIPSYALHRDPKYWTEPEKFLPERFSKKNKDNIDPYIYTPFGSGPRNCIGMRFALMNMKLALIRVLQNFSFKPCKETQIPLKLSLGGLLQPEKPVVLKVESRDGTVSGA

CYP3A4 [9] = target: T1, CYP3A4; settings: cited from earlier work

CN(C)C(=N)N=C(N)N [metformin, reference compound]
concentration range of activity against breast cancer cells [1]: ~5 mM
proliferation-inducing activity for T cells ([2]; concentrations below 5 mM): failed to show proliferation-inducing activity
concentrations causing an increase of CD4+ and CD8+ T lymphocytes ([2]; metformin, 24 hours, FIG. 4): > 5 mM
maximum tissue concentrations [3]: about 500 microM
increase of CD4+ T cells (CD4+ T lymphocytes; 10 mM): 30%
increase of CD8+ T cells (CD8+ T lymphocytes; 10 mM): 14%

CCCCCCNC(=N)NC(=N)NCc1ccccc1 [HBB, N1-hexyl-N5-benzyl biguanide]
FOXP3 and CD25 expression of the Treg cells generated [4]: expressed less FOXP3 and CD25
differentiation of naive T cells into Tregs [4]: inhibits
growth of MCF-7 breast cancer cells [5]: inhibit growth
concentration range of activity against breast cancer cells [1]: ~0.02 mM
pIC50 ([1]; read-out: IC50, OCR and growth inhibition): 4.52 to 5.52
IL2-dependent conversion into Tregs [6]: blocks
IL2-dependent conversion into Tregs [7]: blocks
affinity for the CYP3A4 heme (CYP3A4 [8]): higher affinity than metformin
greater potency for T cell effects relative to metformin [2]: 1000 fold
T cell growth at low concentrations ([2]; 0.09 to 1.5 uM, 24 hours): did not inhibit
proliferation of CD4+ T lymphocytes (CD4+ T lymphocytes; 6 to 12 uM, P<0.05): 1.9 fold
increase of CD4+ T cells (CD4+ T lymphocytes; 6 to 12 microM): 90%
effectiveness for expansion of CD4+ T cells ex vivo relative to metformin (CD4+ T lymphocytes; at 1000-fold lower concentration): 3 fold
proliferation of CD8+ T lymphocytes (CD8+ T lymphocytes; 6 to 12 uM, P<0.05): 1.6 fold
increase of CD8+ T cells (CD8+ T lymphocytes; 6 to 12 microM): 60%
effectiveness for expansion of CD8+ T cells ex vivo relative to metformin (CD8+ T lymphocytes; at 1000-fold lower concentration than metformin): 5 fold
inhibition of CYP3A4 AA epoxygenase activity (CYP3A4 [9]): potently and specifically inhibits
